Source: patent publication US20080293686A1, “SEMI-SOLID SYSTEMS CONTAINING AZETIDINE DERIVATIVES” (AVENTIS PHARMA S.A., priority 2003, published 2008)
≈ marks a conversion by molar mass, not a printed value.

How the values were obtained:
[1] = Solubility of compound (Ic) in lipids and other pharmaceutical cosolvents; type: physicochemical; conditions: in Soyabean oil
Text: The first step was to determine the solubility of compound (Ic) in an exhaustive series of lipids and other pharmaceutical cosolvents including vegetable oils, lipidic components, surfactants, hydrophilic components and phospholipids. The protocol of the solubility measurement is reported in the annex.

[2] = Colloidal stability and self-emulsifying properties after incubation with simulated gastrointestinal fluids and filtration; type: physicochemical; conditions: diluted 1:50, 2 hours at 37° C., theoretical concentration 200 μg/ml
Protocol: The following simulated media were selected for the present experiment: • Gastric medium USP, pH 1.2 • Fasted intestinal medium, pH 6.8 (ref. Dressman et al., Pharm. Res., 1998) • Fed intestinal medium, pH 5 (ref. Dressman et al., Pharm. Res., 1998)
All Compound (Ic) formulations (400 mg) were diluted 1:50 in the gastric, fasted intestinal or fed intestinal medium (20 ml), then incubated during 2 hours at 37° C. under mechanical stirring (300 rpm). The drug concentration was determined by HPLC before and after filtration (2 μm).
The aim of this second part of the study was to evaluate the colloidal stability and the self-emulsifying properties of the emulsion/microemulsion/micellar solution of the (Ic) formulation after incubation in the GI media. Thus, the sample was filtered onto 2 μm (able to retain oil droplets >2 μm, as well as drug crystals >2 μm) then dosed by HPLC. The filter size (2 μm) has been chosen after a screening with different filter sizes (0.45, 2 and 5 μm) tested on the aqueous solution of the drug. […] In summary, the filtered fraction was approximately 1% in the gastric medium, 2% in the fasted intestinal medium, 4.5-5.5% in the fed intestinal medium.

solubility [1]: 31.8 mg/mL (≈ 64.3 mM)
Compound (Ic) recovered after filtration (2 μm) after previous incubation with GI media ([2]; Fasted intestinal pH 6.8): 4.2 µg/mL
Compound (Ic) recovered after filtration (2 μm) after previous incubation with GI media ([2]; Fed intestinal pH 5): 8.8 µg/mL
Compound (Ic) recovered after filtration (2 μm) after previous incubation with GI media ([2]; Gastric medium): 1.9 µg/mL
Compound: CS(=O)(=O)C(=C1CN(C(c2ccc(Cl)cc2)c2ccc(Cl)cc2)C1)c1cc(F)cc(F)c1 [Compound (Ic)]
